Tests used:
[1] = test system: endometrium (uterine horns); assay: Long term photodynamic endometrial ablation in rats; format: in vivo, rat
Description: Rats were divided into 2 groups (6 and 7 rats/group) and their uterine horns were injected with 4 or 8 mg ALA. Example 1, of U.S. application Ser. No. 08/082,113, filed Jun. 21, 1993 (U.S. Pat. No. 5,422,093), was repeated with the exception that all rats were exposed to light and the time from ALA administration to breeding was extended from 10-20 days to 60-70 days. All other procedures were identical to Example 1.
In the groups of rats (n=7) treated with 8 mg ALA 2 of 7 became pregnant in ALA treated uterine horns compared with 7 of 7 pregnancies in the saline treated horns.
In order to show normal uterine histology of a nonpregnant uterine horn contralateral to a pregnant uterine horn one uterine horn was ligated at its distal end prior to breeding. At gestation of 10-15 days nonpregnant uterine horns were harvested and histologically processed. The uterine mucosa was lined with columnar epithelium and there was hypertrophic infolding of endometrial tissue with tortuous glands.

[2] = test system: Dermatophyte (Trichophyton Species)
acne lesions = assay: PpIX induced fluorescence in subjects with truncal acne after topical ALA; format: in vivo, human
Description: Evaluation of PpIX induced fluorescence in 8 subjects with mild to moderate truncal acne was performed. Bacterial infections are frequently associated with lesions of acne, e.g., P. acne. Following evaluation of baseline acne lesion fluorescence, ALA solution 10 and 20% was applied to 10 5 cm^2 sites on the chest or back of volunteers and evaluated at times 0, 3, 8 and 24 hours after ALA application. One site of each concentration was also occluded with opaque film for 3 hours and evaluated at similar time points for comparison with unoccluded sites. Fluorescence of both acneiform lesions as well as surrounding normal skin was assessed visually using a 4 point grading system (0=none, 4=extremely severe) and documented photographically.

[3] = test system: endometrial and myometrial samples; assay: Fluorescence of endometrial and myometrial samples incubated with ALA; format: cell-based; conditions: 1 mM ALA
Description: The procedures of Example 1 (U.S. Pat. No. 5,422,093) were repeated with 1, 2, 3, 4 and 5 hour incubation periods using a level of 1 mM of ALA.

[4] = ALA solution 10 and 20%, unoccluded sites
[5] = sites occluded with opaque film for 3 hours

NCC(=O)CCC(=O)O [ALA, 5-Amino-4-oxopentanoic acid]
implantations in uterine horns treated with ALA ([1]; 4 mg ALA, light, breeding 60-70 days after photodynamic treatment, n=6): no implantations | rats pregnant in ALA treated uterine horns ([1]; 8 mg ALA, light, breeding 60-70 days after treatment, n=7, saline horns 7 of 7): 2 of 7 | endometrial histology after photodynamic treatment ([1]; despite hormonal stimulus of contralateral pregnancy): atrophic endometrium | appearance of toe upon completion of treatment ([2]; human, in vivo): erythematous and somewhat edematous | subjective response during light exposure ([2]; human, in vivo): itching, stinging, and a sensation of mild burning | clinical outcome of fungal infection ([2]; over the next few months after one treatment): all clinical evidence of the fungal infection vanished | PpIX fluorescence by 24 hours (acne lesions; [4]): weak or no fluorescence | dose dependence of increase in PpIX fluorescence (acne lesions; [4]): dose dependent | specificity of PpIX fluorescence (acne lesions; [4]): specific for acne lesions and spared normal surrounding skin | time of maximum PpIX fluorescence (acne lesions; [4]): 8 h | PpIX fluorescence at 24 hours (acne lesions; [5]): remained present at 24 hours | distribution of PpIX fluorescence (acne lesions; [5]): developed PpIX fluorescence in both acne lesions and normal surrounding skin | incubation time of maximum fluorescence in endometrial samples [3]: 4 h | fluorescence in myometrial samples ([3]; 1-5 hour incubation): No significant fluorescence | fluorescence in endometrial samples ([3]; incubated for 2 hours): No significant fluorescence

Reference: US6710066B2, “Photochemotherapeutic method using 5-aminolevulinic acid and other precursors of endogenous porphyrins” (priority 1989, dated 2004)
